Activity calls are given as the source filed them. No rule for the calls is given here.
System: M. tuberculosis wild type, biotin-free medium, growth
Test: growth inhibition of wild-type M. tuberculosis, biotin-free medium, single point, dry powder (AID 743350)

With `CC(=O)c1ccc(N2CCN(C(=O)c3ccccc3Cl)CC2)cc1` the IC90 was > 50 µM (inactive).
In the case of `COCC(=O)N1CC[C@@H]2[C@@H](CO)N(C)c3ccc(-c4cccc(F)c4)cc3[C@@H]21`, the IC90 was > 50 µM (inactive).
For `CNS(=O)(=O)c1ccc(N2CCN(C(=O)c3ccc4c(c3)OCO4)CC2)cc1`, the IC90 was > 50 µM (inactive).
In the case of `CC(C)NC(=O)N1CC[C@@H]2[C@@H](CO)N(C)c3ccc(-c4ccc(F)cc4)cc3[C@@H]21`, the IC90 was > 50 µM (inactive).
`COc1ccc(NC(=O)N2CC[C@@H]3[C@@H](CO)N(C)c4ccc(-c5ccc(F)cc5)cc4[C@@H]32)cc1` was tested, and the IC90 was > 50 µM (inactive).
For `COc1ccc(NC(=O)N2CC[C@@H]3[C@@H](CO)N(C)c4ccc(-c5cccc(F)c5)cc4[C@@H]32)cc1`, the IC90 was > 50 µM (inactive).
For `CN1c2ccc(-c3ccc(F)cc3)cc2[C@H]2[C@H](CCN2C(=O)Nc2ccc(F)cc2)[C@H]1CO`, the IC90 was > 50 µM (inactive).
Work on `CC(=O)c1ccc(N2CCN(C(=O)c3ccc4c(c3)OCO4)[C@H](C)C2)cc1` yielded an IC90 of 27.3 µM.
With `CC(=O)c1ccc(N2CC3(CN(C(=O)c4ccc5c(c4)OCO5)C3)C2)cc1` the IC90 was > 50 µM (inactive).
`CN1c2ccc(-c3cccc(F)c3)cc2[C@H]2[C@H](CCN2C(=O)CCCCCCN)[C@H]1CO` was tested, and the IC90 was > 50 µM (inactive).
For `CN1c2ccc(-c3cccc(F)c3)cc2[C@@H]2[C@@H](CCN2C(=O)c2ccc3c(c2)OCO3)[C@H]1CO`, the IC90 was > 50 µM (inactive).
In the case of `CC(=O)c1ccc(NCCNC(=O)c2ccc3c(c2)OCO3)cc1`, the IC90 was > 50 µM (inactive).
With `CCCNC(=O)N1CC[C@@H]2[C@@H](CO)N(C)c3ccc(-c4ccc(F)cc4)cc3[C@@H]21` the IC90 was > 50 µM (inactive).
In the case of `CC(=O)c1ccc(N2CCN(C(=O)c3ccc4c(c3)OCO4)CC2)cc1`, the IC90 was 39.7 µM.
With `CN1c2ccc(-c3cccc(F)c3)cc2[C@H]2[C@H](CCN2C(=O)CCCCCCC(=O)O)[C@H]1CO` the IC90 was > 50 µM (inactive).
`CNC(=O)c1ccc(N2CCN(C(=O)c3ccc4c(c3)OCO4)CC2)cc1` was tested, and the IC90 was > 50 µM (inactive).
In the case of `CN(C)C(=O)c1ccc(N2CCN(C(=O)c3ccc4c(c3)OCO4)CC2)cc1`, the IC90 was > 50 µM (inactive).
For `CCCCCCCC(=O)N1CC[C@@H]2[C@@H](CO)N(C)c3ccc(-c4cccc(F)c4)cc3[C@@H]21`, the IC90 was > 50 µM (inactive).
In the case of `COc1ccccc1C(=O)N1CCN(c2ccc(C(C)=O)cc2)CC1`, the IC90 was > 50 µM (inactive).
With `CN1c2ccc(-c3ccc(F)cc3)cc2[C@H]2[C@H](CCN2C(=O)Nc2cc(F)ccc2F)[C@H]1CO` the IC90 was > 50 µM (inactive).
`CN1c2ccc(-c3cccc(F)c3)cc2[C@H]2[C@H](CCN2C(=O)c2ccc3c(c2)OCO3)[C@@H]1CO` was tested, and the IC90 was > 50 µM (inactive).
With `COc1ccccc1NC(=O)N1CC[C@@H]2[C@@H](CO)N(C)c3ccc(-c4ccc(F)cc4)cc3[C@@H]21` the IC90 was > 50 µM (inactive).
With `CCC(=O)N1CC[C@@H]2[C@@H](CO)N(C)c3ccc(-c4ccc(F)cc4)cc3[C@@H]21` the IC90 was > 50 µM (inactive).
With `CN1c2ccc(-c3ccc(F)cc3)cc2[C@H]2[C@H](CCN2C(=O)Cc2cccnc2)[C@H]1CO` the IC90 was > 50 µM (inactive).
In the case of `CN1c2ccc(-c3cccc(F)c3)cc2[C@H]2[C@H](CCN2C(=O)Cc2cccnc2)[C@H]1CO`, the IC90 was > 50 µM (inactive).
`COC(=O)CCCCCCC(=O)N1CC[C@@H]2[C@@H](CO)N(C)c3ccc(-c4cccc(F)c4)cc3[C@@H]21` was tested, and the IC90 was > 50 µM (inactive).
In the case of `CC(C)NC(=O)N1CC[C@@H]2[C@@H](CO)N(C)c3ccc(-c4cccc(F)c4)cc3[C@@H]21`, the IC90 was > 50 µM (inactive).
For `CN1c2ccc(-c3ccc(F)cc3)cc2[C@H]2[C@H](CCN2C(=O)Cc2ccccn2)[C@H]1CO`, the IC90 was > 50 µM (inactive).
With `CN1c2ccc(-c3cccc(F)c3)cc2[C@@H]2[C@@H](CCN2C(=O)c2ccc3c(c2)OCO3)[C@@H]1CO` the IC90 was > 50 µM (inactive).
In the case of `COc1ccccc1NC(=O)N1CC[C@@H]2[C@@H](CO)N(C)c3ccc(-c4cccc(F)c4)cc3[C@@H]21`, the IC90 was > 50 µM (inactive).
With `CN1c2ccc(-c3cccc(F)c3)cc2[C@H]2[C@H](CCN2C(=O)Nc2ccccc2F)[C@H]1CO` the IC90 was > 50 µM (inactive).
For `CN1c2ccc(-c3cccc(F)c3)cc2[C@H]2[C@H](CCN2C(=O)Cc2ccccc2)[C@H]1CO`, the IC90 was > 50 µM (inactive).
`COc1cccc(NC(=O)N2CC[C@@H]3[C@@H](CO)N(C)c4ccc(-c5cccc(F)c5)cc4[C@@H]32)c1` was tested, and the IC90 was > 50 µM (inactive).
In the case of `CC(=O)c1ccc(N2CCN(C(=O)c3ccccc3F)CC2)cc1`, the IC90 was > 50 µM (inactive).

From PubChem BioAssay AID743350 (Broad Institute, 2014)
